Results: ChEMBL document CHEMBL5523667, “Blood-stage antimalarial activity, favourable metabolic stability and in vivo toxicity of novel piperazine linked 7-chloroquinoline-triazole conjugates” (Eur J Med Chem, 2024)

How the values were obtained:
[1] = molecular target: T1, Falcipain 2 (Plasmodium falciparum) (UniProt Q9N6S8); test: Inhibition of N-terminal 6His-tagged recombinant Plasmodium falciparum FP2 expressed in Escherichia coli M15 using Z-Phe-Arg-AMC as substrate at 10 uM measured after 30 mins by microplate reader analysis relative to control
T1 sequence (whole entry): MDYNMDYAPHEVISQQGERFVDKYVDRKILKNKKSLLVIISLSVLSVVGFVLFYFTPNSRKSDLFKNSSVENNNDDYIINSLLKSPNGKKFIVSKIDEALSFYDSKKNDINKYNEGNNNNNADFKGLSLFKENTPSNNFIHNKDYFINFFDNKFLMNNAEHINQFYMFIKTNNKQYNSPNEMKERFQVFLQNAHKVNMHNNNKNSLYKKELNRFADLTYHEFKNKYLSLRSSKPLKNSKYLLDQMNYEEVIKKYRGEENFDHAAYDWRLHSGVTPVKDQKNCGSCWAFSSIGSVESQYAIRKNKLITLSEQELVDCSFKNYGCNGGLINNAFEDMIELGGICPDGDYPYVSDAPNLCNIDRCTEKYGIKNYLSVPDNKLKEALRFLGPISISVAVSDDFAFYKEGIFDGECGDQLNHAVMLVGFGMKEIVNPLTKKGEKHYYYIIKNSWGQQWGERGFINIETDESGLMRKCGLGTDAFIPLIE

[2] = system: Plasmodium berghei; test: Antimalarial activity against Plasmodium berghei ANKA infected in female BALB/c mouse assessed as reduction in parasitemia at 50 mg/kg, ip measured on day 4 post infection by Giemsa staining based light microscopy (Rvb >17 %); type: functional; parameters: scale not given: the % may be the effect or the level left

Work on `O=C(Cn1cc(CN2CCN(c3ccnc4cc(Cl)ccc34)CC2)nn1)Nc1cccc([N+](=O)[O-])c1` yielded an inhibition [1] of 54.3% and an Activity [2] greater than 7%.
